Structures can show the parent of a compound that is named as a salt.
Tested on: not given
Experiment: not given
Conditions: not given

| Structure (SMILES) | melting point [°C] |
| --- | --- |
| Fc1ccc(CNc2nc(NCc3ccccc3F)nc(OCC(F)(F)F)n2)cc1 | 105 to 107 |
| Fc1ccc(CNc2nc(OCC(F)(F)F)nc(-c3ccccc3)n2)cc1 | 170 to 172 |
| CC(C)N1CCC(Nc2nc(NCc3ccc(F)cc3)nc(OCC(F)(F)F)n2)C1 (stereo not shown) | 98 to 99 |
| CCNc1nc(NCCN2CCCC2)nc(Nc2ccc(OC)cc2)n1 (as salt: hydrochloride) | 29 to 31 |
| Fc1ccc(CNc2nc(OCc3ccccc3)nc(OCC(F)(F)F)n2)cc1 | 101 to 103 |
| CCOc1nc(NCc2ccco2)nc(N2CCN(Cc3ccccn3)CC2)n1 | 115 to 117 |

The next lines start with the values.

| melting point [°C] | Structure (SMILES) |
| --- | --- |
| 124 to 126 | FC(F)(F)c1cccc(Nc2nc(NCc3ccco3)nc(OCc3ccncc3)n2)c1 |
| 116 to 118 | Cc1ccc(CNc2nc(OCC(F)(F)F)nc(Oc3cccc(C(F)(F)F)c3)n2)o1 |
| 266 to 268 | Oc1nc(NCc2ccc(F)cc2)nc(Nc2cccc(C(F)(F)F)c2)n1 |
| 107 to 109 | Fc1ccc(CNc2nc(OCC(F)(F)F)nc(Oc3cccc(C(F)(F)F)c3)n2)cc1 |
| 148 to 150 | Fc1ccc(CNc2nc(Nc3cccc(Cl)c3)nc(OCC(F)(F)F)n2)cc1 |
| 80 to 83 | Oc1ccc(Nc2nc(NCc3ccco3)nc(Oc3ccc(O)cc3)n2)cc1 |

Tested on: H77/JFH-1 chimeric HCVcc
Experiment: HCV cell culture (HCVcc) model, Renilla luciferase
Type: cell-based
Conditions: H77/JFH-1 HCVcc, Huh 7.5 cells, Renilla luciferase 72 hours post-infection

| Structure (SMILES) | EC50 [nM] |
| --- | --- |
| C[C@@]1(O)[C@H](O)[C@@H](CO)O[C@H]1n1cnc2c(N)ncnc21 [Compound 2-CMA] | 92 |

— patent publication US20120009151A1, “Triazines And Related Compounds Having Antiviral Activity, Compositions And Methods Thereof” (priority 2007, published 2012)
